From patent US10654808B2, “Tyrosine kinase inhibitor and pharmaceutical composition comprising same” (GUANGDONG RAYNOVENT BIOTECH CO., LTD., priority 2015, dated 2020)

How the values were obtained:
[1] = biological target: T1, PDGFRB (Homo sapiens, UniProt P09619); test: Z'-LYTE in vitro enzyme activity assay, PDGFRB; type: biochemical; details: 100 μM ATP, 60 minutes, room temperature; read-out: IC50 detected by Z'-LYTE, PDGFRB
T1 construct: purchased Millipore
Outline: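 Z′-LYTE FRET kinase assay using 40 nM PDGFRB, 2 μM Tyr4 peptide and 100 μM ATP in HEPES pH 7.5 with Mg2+/Mn2+ and 1% DMSO. The reaction ran 60 min at room temperature, followed by development for 60 min at 23 °C. IC50 values came from 4-parameter fits over 11 concentrations (10 μM–0.17 nM).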

[2] = biological target: T2, FGFR1 (Homo sapiens, UniProt P11362); test: Z'-LYTE in vitro enzyme activity assay, FGFR1; type: biochemical; details: 25 μM ATP, 60 minutes, room temperature; read-out: IC50 detected by Z'-LYTE, FGFR1
T2 construct: purchased Life technology
Outline: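 Z′-LYTE FRET assay with 1 nM FGFR1, 2 μM Tyr4 peptide and 25 μM ATP in HEPES pH 7.5 with Mg/Mn, 60 min at room temperature, then development 60 min at 23 °C. Compounds tested at 11 concentrations from 10 μM to 0.17 nM in 1% DMSO. IC50 from 4-parameter fit of inhibition.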

[3] = test system: HUVEC; test: CellTiter-Glo luminescent cell viability assay, HUVEC stimulated with hVEGF-165; type: cell-based; details: Homo sapiens, hVEGF-165 20 ng/ml, 72 hours, read-out: IC50 detected by CellTiter-Glo, HUVEC
Method: The intracellular ATP changes were measured by CellTiter-Glo® Luminescent Cell Viability Assay. The IC50 value of the compounds was used as an index to evaluate the inhibitory effect of the compounds on HUVEC in vitro.
HUVEC cell line (ATCC), EGM-2 BulletKit (Lonza), hVEGF-165 (Cell Signaling), trypsin (Invitrogen), DPBS (Hyclone), 384 cell plate (Greiner), 384 compound plate (Greiner), CO2 incubator (Thermo), centrifuge (Eppendorf), Vi-cell cell counter (Beckman Coulter), Bravo Automatic Liquid Workstation (Agilent), Envision (Perkin Elmer)
B: Cell plating: HUVEC cells were resuspended with starved medium (only containing 2% FBS and 0.1% GA-1000) and diluted to a concentration of 20,000/mL. The diluted cells were added to a 384 plate (Greiner), 50 μl per well. The cell plates were placed in a 37° C., 5% CO2 incubator overnight.
C: Drug addition: the test compounds were diluted 4 times to obtain a total of 10 doses at a final concentration of 10 uM to 0.038 nM, two parallel wells. The middle plate was added with 47.6 uL of starved medium per well. 2.4 μl of compounds was transferred from a gradient dilution compound plate to a middle plate and mixed well. 5 μl of liquid was transferred from the middle plate to a cell plate. Incubate for 1 hour at 37° C. in a 5% CO2 incubator, 5 μl of starved medium containing hVEGF-165 (the final concentration was 20 ng/ml) and Heparin (the final concentration was 1 ng/m) were added and incubated at 37° C. in a 5% CO2 incubator for 72 hours.
D: After 72 hours, 30 μl of assay reagents was added and incubated at room temperature for 10-30 minutes, Envision was used to read the plate.
The reading was converted into suppression rate (%) (Max−Sample)/(Max−Min)*100%. Parameter curve fitting (Model 205 in XLFIT5, iDBS) was used to measure to obtain IC50 data.

[4] = biological target: T3, VEGFR2 (Homo sapiens, UniProt P35968); test: Z'-LYTE in vitro enzyme activity assay, VEGFR2; type: biochemical; details: 100 μM ATP, 60 minutes, room temperature; read-out: IC50 detected by Z'-LYTE, VEGFR2
T3 construct: purchased Life technology
Outline: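 Reaction with 3 nM VEGFR2, 2 μM Tyr1 peptide and 100 μM ATP in HEPES pH 7.5/MgCl2/EGTA/BRIJ-35, 1% DMSO, 60 min at room temperature; development reagent then 60 min at 23° C. Compounds tested at 11 threefold dilutions, 10 μM–0.17 nM final, in duplicate; IC50 from 4-parameter fit of inhibition.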

[5] = test system: Calu 6 Transplant model; test: Tumor growth inhibition (TGI), Calu 6 transplant model in mice; type: in vivo; details: QD
Method: The evolution and growth trends of the tumor was evaluated by the relationship between tumor volume and time. The long axis (L) and short axis (W) of the subcutaneous tumor were measured twice a week by the caliper and the volume of the tumor (TV) was calculated by the formula ((L×W^2)/2). TGI was calculated by the difference between the median tumor volume of the mice in the solvent group and the median tumor volume of the mice in the drug group expressed as a percentage of the tumor volume in the solvent control group
Calculated by the following formula: % TGI=((intermediate tumor volume (control)−intermediate tumor volume (administration group))/intermediate tumor volume (control group))×100%
The original statistical analysis was performed by repeated variance analysis, and then a multiple comparisons were performed using the Scheffe psot hoc test method. Individual solvent (0.5% methylcellulose+0.2% Tween aqueous solution) was a negative control.

T1 sequence (P09619 33-1106): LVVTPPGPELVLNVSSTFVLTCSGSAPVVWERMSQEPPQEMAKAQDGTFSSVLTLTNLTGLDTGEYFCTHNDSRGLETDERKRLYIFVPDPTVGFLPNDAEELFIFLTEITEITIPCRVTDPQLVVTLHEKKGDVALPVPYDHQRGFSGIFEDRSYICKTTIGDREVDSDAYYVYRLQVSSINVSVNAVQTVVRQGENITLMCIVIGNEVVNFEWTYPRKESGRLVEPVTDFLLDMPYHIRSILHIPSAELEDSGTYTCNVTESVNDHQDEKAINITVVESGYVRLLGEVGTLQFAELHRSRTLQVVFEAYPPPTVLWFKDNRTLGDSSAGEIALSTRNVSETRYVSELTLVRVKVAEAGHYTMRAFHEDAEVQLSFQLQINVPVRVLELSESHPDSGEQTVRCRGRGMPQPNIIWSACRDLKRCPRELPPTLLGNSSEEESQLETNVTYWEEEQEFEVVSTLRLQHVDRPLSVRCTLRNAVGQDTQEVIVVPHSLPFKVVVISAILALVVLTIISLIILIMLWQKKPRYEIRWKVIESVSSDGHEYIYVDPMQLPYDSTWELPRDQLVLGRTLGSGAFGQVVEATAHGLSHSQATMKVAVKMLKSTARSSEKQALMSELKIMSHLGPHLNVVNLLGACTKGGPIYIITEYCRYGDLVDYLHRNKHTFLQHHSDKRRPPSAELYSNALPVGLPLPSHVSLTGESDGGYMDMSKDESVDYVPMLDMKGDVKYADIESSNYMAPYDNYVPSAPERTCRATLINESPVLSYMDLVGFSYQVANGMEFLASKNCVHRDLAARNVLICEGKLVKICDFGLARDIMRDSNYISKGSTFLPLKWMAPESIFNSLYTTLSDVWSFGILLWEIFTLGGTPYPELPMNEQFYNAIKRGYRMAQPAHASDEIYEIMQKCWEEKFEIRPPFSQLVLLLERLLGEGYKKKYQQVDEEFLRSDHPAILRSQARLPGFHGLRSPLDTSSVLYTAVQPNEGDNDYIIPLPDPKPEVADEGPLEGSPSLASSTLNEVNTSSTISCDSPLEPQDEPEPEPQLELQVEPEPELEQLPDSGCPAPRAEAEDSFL
T2 sequence (P11362 22-822): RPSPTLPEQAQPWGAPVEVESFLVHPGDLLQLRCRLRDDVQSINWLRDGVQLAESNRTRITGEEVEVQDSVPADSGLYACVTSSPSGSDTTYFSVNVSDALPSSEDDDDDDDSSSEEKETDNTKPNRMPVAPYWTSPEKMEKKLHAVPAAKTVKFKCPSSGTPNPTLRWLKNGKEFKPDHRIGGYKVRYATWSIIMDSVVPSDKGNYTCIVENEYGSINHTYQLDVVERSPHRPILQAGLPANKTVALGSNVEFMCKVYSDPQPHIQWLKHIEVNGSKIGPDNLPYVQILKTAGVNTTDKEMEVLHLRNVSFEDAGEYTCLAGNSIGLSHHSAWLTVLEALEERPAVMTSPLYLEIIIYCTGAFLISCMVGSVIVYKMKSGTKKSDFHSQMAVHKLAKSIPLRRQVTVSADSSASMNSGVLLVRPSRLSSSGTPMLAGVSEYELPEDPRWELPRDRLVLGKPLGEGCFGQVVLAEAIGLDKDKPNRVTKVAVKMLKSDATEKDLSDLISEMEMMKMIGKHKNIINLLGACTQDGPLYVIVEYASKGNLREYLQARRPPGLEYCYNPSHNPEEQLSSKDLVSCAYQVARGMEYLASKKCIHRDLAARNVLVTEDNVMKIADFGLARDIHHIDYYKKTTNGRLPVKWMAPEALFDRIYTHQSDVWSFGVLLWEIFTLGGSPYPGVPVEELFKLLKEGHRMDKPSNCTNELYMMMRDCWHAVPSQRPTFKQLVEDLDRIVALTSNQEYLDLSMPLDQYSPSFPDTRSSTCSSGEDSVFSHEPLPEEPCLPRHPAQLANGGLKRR
T3 sequence (P35968 20-1356): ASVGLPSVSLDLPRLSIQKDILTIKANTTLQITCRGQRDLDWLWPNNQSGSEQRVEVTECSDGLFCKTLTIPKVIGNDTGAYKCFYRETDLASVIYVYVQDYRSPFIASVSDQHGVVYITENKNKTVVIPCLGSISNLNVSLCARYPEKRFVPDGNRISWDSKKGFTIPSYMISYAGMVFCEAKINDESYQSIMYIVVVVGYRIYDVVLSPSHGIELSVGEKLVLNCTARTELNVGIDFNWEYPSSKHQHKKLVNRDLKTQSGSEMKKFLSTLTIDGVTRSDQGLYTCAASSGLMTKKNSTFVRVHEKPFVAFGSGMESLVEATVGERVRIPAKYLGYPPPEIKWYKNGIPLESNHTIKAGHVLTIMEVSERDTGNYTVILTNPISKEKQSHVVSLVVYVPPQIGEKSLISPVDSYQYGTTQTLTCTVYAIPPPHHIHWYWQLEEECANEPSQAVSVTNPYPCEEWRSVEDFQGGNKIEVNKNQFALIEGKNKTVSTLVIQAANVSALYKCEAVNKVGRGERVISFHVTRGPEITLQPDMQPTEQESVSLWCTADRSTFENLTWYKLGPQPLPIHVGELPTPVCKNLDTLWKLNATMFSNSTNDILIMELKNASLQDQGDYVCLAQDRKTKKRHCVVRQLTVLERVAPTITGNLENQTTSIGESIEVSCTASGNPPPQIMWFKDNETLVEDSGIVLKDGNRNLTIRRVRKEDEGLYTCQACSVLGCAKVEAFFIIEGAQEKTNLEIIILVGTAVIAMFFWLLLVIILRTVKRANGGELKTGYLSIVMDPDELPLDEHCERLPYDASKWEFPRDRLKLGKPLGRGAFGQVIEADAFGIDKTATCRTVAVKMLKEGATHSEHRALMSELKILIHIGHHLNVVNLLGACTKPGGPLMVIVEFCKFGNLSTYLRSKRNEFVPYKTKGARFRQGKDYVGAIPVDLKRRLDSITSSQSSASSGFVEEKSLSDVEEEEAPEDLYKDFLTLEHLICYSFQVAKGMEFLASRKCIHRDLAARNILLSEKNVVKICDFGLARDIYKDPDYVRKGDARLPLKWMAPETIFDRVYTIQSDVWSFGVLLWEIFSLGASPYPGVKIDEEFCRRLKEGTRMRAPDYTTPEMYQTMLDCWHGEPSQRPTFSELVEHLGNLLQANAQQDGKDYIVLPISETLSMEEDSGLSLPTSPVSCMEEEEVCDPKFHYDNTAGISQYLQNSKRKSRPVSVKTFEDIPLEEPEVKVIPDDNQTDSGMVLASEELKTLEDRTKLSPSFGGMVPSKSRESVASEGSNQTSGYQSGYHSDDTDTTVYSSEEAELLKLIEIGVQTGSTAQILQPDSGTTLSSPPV

SMILES | IC50 [1] | IC50 [2] | IC50 [3] | IC50 [4] | TGI % (last administration) ([5]; 50 mg/kg) | TGI % (last administration) ([5]; 100 mg/kg) | TGI % (last administration) ([5]; 10 mg/kg)
COc1cc2nccc(Oc3ccc(NC(=S)NC4CC4)c(Cl)c3)c2cc1C(N)=O [Example 1] | 50 to 200 nM | 200 to 1000 nM | < 100 nM | < 50 nM | 57% |  | 
CCNC(=S)Nc1ccc(Oc2ccnc3cc(OC)c(C(N)=O)cc23)c(F)c1Cl [Example 124] | < 50 nM | < 50 nM | < 100 nM | < 50 nM |  |  | 
COCCOc1cc2nccc(Oc3ccc(NC(=S)NC4CC4)c(Cl)c3)c2cc1C(N)=O [Example 174] | < 50 nM | 200 to 1000 nM | < 100 nM | < 50 nM |  |  | 
COc1cc2nccc(Oc3ccc4c(C(=O)NC5CC5)coc4c3)c2cc1C(N)=O [Example 185] | 200 to 1000 nM | 50 to 200 nM | < 100 nM | < 50 nM |  |  | 
COc1cc2nccc(Oc3ccc4oc(C(=O)N5CC(F)(F)C5)cc4c3)c2cc1C(N)=O [Example 190] | 200 to 1000 nM | 200 to 1000 nM | 100 to 1000 nM | 200 to 1000 nM |  |  | 
COc1cc2nccc(Oc3ccc4oc(C(=O)NC5CC5)cc4c3)c2cc1C(N)=O [Example 191] | 200 to 1000 nM | 200 to 1000 nM | 100 to 1000 nM | 200 to 1000 nM |  |  | 
[2H]C([2H])([2H])NC(=O)c1coc2cc(Oc3ccnc4cc(OC)c(C(N)=O)cc34)ccc12 [Example 200] | < 50 nM | 50 to 200 nM | < 100 nM | < 50 nM |  | 59% | 
COc1cc2nccc(Oc3cc4occ(C(=O)NC5CC5)c4cc3F)c2cc1C(N)=O [Example 207] | < 50 nM | 200 to 1000 nM | 100 to 1000 nM | < 50 nM |  |  | 
[2H]C([2H])([2H])NC(=O)c1coc2cc(Oc3ccnc4cc(OC)c(C(N)=O)cc34)c(F)cc12 [Example 209] | < 50 nM | 50 to 200 nM | 100 to 1000 nM | 50 to 200 nM |  |  | 
CCNC(=O)c1coc2cc(Oc3ccnc4cc(OC)c(C(N)=O)cc34)ccc12 [Example 210] | < 50 nM | 200 to 1000 nM | < 100 nM | < 50 nM |  |  | 
Cn1cnc(-c2ccc3c(Oc4ccc(NC(=S)NC5CC5)c(Cl)c4)ccnc3c2)c1 [Example 212] | < 50 nM | 200 to 1000 nM | 100 to 1000 nM | < 50 nM |  |  | 
Cn1cnc(-c2ccc3c(Oc4ccc(NC(=O)NC5CC5)c(Cl)c4F)ccnc3c2)c1 [Example 214] | 50 to 200 nM | < 50 nM | < 100 nM | < 50 nM |  |  | 
Cn1cncc1-c1ccc2c(Oc3ccc(NC(=O)NC4CC4)c(Cl)c3F)ccnc2c1 [Example 215] | 50 to 200 nM | 50 to 200 nM | < 100 nM | < 50 nM |  |  | 
CCNC(=O)Nc1ccc(Oc2ccnc3cc(-c4cn(C)cn4)ccc23)c(F)c1Cl [Example 216] | 50 to 200 nM | < 50 nM | < 100 nM | < 50 nM |  |  | 83%
Cn1cnc(-c2ccc3c(Oc4ccc(NC(=O)N5CC(F)(F)C5)c(Cl)c4F)ccnc3c2)c1 [Example 218] | < 50 nM | 50 to 200 nM | 100 to 1000 nM | < 50 nM |  |  | 
Cn1cnc(-c2ccc3c(Oc4ccc(NC(=O)N5CCCC5)c(Cl)c4F)ccnc3c2)c1 [Example 219] | 50 to 200 nM | < 50 nM | < 100 nM | < 50 nM |  |  | 
CCNC(=O)Nc1ccc(Oc2ccnc3cc(-c4cn(C)cn4)ccc23)cc1Cl [Example 220] | 50 to 200 nM | < 50 nM | < 100 nM | < 50 nM |  |  | 
Cn1cnc(-c2ccc3c(Oc4ccc(NC(=O)NC5CC5)c(Cl)c4)ccnc3c2)c1 [Example 221] | 50 to 200 nM | < 50 nM | < 100 nM | < 50 nM |  |  | 
CCNC(=O)c1coc2cc(Oc3ccnc4cc(-c5cn(C)cn5)ccc34)ccc12 [Example 222] | 50 to 200 nM | < 50 nM | < 100 nM | < 50 nM |  |  | 
Cn1cnc(-c2ccc3c(Oc4ccc5c(C(=O)NC6CC6)coc5c4)ccnc3c2)c1 [Example 223] | 50 to 200 nM | < 50 nM | < 100 nM | < 50 nM |  |  | 
[2H]C([2H])([2H])NC(=O)c1coc2cc(Oc3ccnc4cc(-c5cn(C)cn5)ccc34)ccc12 [Example 224] | < 50 nM | < 50 nM | < 100 nM | < 50 nM |  |  | 
CNC(=O)c1coc2cc(Oc3ccnc4cc(-c5cn(C)cn5)ccc34)ccc12 [Example 225] | 50 to 200 nM | < 50 nM | < 100 nM | < 50 nM |  |  | 
